According to PMC11864979, “First-in-class ultralong-target-residence-time p38α inhibitors as a mitosis-targeted therapy for colorectal cancer” (Nature Cancer, 2025):
Where two headings read alike, the source gives them in different places.

Experiments:
Assay in all cases: selectivity profiling in a panel of 340 wild-type kinases (Reaction Biology Europe)
Format in all cases: binding
340 wild-type kinases [1] = target: T1, 340 wild-type kinases (Homo sapiens, UniProt P30530)
T1 construct: purchased Reaction Biology Europe
T1 sequence (P30530 26-894): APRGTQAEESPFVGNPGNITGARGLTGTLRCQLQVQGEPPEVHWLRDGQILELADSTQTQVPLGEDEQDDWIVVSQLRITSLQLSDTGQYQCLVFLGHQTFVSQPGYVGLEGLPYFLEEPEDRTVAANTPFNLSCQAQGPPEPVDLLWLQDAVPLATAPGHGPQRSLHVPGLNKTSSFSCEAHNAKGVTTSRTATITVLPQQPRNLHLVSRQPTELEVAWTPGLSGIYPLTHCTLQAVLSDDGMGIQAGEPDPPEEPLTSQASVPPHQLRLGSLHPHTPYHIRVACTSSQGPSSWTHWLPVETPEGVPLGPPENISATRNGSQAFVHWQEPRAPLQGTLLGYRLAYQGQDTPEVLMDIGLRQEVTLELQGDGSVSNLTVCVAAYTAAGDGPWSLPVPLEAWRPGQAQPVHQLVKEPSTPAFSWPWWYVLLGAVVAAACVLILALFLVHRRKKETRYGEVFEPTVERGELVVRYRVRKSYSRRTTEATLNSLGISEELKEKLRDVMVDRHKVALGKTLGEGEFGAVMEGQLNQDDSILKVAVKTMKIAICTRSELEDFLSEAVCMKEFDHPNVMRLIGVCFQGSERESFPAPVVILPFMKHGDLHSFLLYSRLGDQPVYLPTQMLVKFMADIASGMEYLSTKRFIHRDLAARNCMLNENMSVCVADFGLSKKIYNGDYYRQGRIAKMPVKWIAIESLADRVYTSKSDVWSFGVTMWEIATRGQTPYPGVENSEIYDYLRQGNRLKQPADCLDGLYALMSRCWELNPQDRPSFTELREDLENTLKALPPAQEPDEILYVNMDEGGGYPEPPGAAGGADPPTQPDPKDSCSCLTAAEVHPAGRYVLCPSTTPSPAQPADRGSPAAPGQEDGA

340 wild-type kinases [2] = target: T2, 340 wild-type kinases (Homo sapiens, UniProt P31749)
T2 construct: purchased Reaction Biology Europe

340 wild-type kinases [3] = target: T3, 340 wild-type kinases (Homo sapiens, UniProt P49841)
T3 construct: purchased Reaction Biology Europe

340 wild-type kinases [4] = target: T4, 340 wild-type kinases (Homo sapiens, UniProt Q16566)
T4 construct: purchased Reaction Biology Europe
T4 sequence (Q16566 1-473): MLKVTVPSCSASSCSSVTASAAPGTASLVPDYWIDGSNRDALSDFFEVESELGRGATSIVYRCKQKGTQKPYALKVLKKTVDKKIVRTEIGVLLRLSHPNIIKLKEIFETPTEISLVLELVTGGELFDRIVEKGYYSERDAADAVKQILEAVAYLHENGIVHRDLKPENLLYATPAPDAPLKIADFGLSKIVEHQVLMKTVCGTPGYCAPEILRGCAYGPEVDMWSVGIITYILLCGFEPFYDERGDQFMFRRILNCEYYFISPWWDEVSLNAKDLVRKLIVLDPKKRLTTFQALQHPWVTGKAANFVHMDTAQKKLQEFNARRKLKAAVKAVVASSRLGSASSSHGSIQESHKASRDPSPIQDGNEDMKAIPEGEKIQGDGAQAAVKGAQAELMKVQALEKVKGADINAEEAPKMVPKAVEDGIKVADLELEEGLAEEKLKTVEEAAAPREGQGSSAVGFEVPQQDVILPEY

340 wild-type kinases [5] = target: T5, 340 wild-type kinases (Homo sapiens, UniProt Q00526)
T5 construct: purchased Reaction Biology Europe

340 wild-type kinases [6] = target: T6, 340 wild-type kinases (Homo sapiens, UniProt P12931)
T6 construct: purchased Reaction Biology Europe

340 wild-type kinases [7] = target: T7, 340 wild-type kinases (Homo sapiens, UniProt Q9Y2K2)
T7 construct: purchased Reaction Biology Europe

340 wild-type kinases [8] = target: T8, 340 wild-type kinases (Homo sapiens, UniProt P06239)
T8 construct: purchased Reaction Biology Europe
T8 sequence (P06239 whole entry): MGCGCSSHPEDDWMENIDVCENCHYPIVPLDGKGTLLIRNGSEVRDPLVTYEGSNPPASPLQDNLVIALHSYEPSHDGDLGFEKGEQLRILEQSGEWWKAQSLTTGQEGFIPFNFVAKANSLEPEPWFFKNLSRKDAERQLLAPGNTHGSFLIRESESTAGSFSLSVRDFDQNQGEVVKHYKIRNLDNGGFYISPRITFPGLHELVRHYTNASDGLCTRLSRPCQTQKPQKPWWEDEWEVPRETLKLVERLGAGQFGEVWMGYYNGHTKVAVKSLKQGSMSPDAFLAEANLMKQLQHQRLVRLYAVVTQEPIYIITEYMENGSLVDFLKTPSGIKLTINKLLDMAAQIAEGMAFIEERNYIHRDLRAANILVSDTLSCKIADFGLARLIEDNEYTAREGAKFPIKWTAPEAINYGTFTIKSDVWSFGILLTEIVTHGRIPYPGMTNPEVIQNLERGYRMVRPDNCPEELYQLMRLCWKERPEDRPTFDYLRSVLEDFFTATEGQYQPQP

T7 sequence (Q9Y2K2 whole entry): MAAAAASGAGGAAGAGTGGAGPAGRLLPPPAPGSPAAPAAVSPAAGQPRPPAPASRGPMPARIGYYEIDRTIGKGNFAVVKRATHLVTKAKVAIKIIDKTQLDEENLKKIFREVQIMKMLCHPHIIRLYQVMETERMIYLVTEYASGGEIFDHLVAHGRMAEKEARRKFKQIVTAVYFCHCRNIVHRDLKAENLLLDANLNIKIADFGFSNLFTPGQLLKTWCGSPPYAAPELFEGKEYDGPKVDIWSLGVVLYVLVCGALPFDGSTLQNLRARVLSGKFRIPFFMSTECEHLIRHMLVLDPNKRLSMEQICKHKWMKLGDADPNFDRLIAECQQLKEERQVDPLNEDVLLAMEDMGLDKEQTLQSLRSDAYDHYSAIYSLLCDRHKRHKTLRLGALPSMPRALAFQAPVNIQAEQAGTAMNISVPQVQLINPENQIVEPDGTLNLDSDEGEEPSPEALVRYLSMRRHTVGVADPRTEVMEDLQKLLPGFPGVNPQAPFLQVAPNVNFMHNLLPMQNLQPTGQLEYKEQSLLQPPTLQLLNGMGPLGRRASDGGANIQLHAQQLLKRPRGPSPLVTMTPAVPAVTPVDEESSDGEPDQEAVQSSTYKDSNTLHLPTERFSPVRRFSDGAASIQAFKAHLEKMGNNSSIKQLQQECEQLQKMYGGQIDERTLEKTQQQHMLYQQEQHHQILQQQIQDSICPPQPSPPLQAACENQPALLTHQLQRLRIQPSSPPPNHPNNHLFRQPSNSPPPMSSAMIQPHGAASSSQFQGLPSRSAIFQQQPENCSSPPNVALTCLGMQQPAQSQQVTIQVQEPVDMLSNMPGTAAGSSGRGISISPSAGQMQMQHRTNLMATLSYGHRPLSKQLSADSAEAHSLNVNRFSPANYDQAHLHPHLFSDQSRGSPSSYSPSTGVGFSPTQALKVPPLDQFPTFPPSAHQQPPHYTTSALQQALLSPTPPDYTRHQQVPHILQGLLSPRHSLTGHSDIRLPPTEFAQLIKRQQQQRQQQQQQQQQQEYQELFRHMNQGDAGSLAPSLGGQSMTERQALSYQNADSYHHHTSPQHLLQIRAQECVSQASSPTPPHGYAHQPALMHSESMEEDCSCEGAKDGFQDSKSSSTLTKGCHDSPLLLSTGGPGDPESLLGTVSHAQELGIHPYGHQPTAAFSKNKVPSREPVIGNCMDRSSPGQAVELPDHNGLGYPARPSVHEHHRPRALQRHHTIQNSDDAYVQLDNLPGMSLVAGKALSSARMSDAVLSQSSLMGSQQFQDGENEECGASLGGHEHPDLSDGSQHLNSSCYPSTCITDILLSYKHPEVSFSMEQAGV
T3 sequence (P49841 whole entry): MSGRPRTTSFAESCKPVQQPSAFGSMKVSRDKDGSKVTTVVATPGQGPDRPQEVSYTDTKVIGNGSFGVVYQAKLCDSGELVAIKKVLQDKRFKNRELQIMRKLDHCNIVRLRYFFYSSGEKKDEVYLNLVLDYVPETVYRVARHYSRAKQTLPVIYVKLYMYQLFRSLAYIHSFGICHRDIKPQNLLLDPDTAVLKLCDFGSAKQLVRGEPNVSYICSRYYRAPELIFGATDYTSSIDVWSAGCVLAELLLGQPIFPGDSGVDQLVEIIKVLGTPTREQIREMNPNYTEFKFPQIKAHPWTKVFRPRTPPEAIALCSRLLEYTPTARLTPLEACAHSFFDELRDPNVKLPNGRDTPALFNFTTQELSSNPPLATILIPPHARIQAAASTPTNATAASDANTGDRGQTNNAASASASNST
T6 sequence (P12931 whole entry): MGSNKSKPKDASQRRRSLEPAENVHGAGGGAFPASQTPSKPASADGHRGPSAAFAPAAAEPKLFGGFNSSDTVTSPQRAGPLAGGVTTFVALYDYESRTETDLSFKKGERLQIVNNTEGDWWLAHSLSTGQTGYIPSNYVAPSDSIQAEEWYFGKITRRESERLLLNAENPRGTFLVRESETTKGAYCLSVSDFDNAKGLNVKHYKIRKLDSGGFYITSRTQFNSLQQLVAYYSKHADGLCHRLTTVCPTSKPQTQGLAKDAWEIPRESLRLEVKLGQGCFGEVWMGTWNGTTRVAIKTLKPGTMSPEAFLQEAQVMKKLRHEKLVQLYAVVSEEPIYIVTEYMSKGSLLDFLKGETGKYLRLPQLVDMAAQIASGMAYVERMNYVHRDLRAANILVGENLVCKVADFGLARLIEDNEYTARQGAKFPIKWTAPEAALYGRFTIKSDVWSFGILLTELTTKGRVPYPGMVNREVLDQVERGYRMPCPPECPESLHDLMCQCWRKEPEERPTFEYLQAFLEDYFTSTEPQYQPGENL
T5 sequence (Q00526 whole entry): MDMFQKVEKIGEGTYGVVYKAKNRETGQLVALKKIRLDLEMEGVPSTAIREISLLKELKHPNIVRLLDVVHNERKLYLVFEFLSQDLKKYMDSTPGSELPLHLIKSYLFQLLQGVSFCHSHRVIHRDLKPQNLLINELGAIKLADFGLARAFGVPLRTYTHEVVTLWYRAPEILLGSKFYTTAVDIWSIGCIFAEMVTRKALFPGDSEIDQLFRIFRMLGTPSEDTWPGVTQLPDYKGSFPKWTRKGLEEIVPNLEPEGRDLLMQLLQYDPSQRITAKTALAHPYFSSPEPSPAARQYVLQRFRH
T2 sequence (P31749 whole entry): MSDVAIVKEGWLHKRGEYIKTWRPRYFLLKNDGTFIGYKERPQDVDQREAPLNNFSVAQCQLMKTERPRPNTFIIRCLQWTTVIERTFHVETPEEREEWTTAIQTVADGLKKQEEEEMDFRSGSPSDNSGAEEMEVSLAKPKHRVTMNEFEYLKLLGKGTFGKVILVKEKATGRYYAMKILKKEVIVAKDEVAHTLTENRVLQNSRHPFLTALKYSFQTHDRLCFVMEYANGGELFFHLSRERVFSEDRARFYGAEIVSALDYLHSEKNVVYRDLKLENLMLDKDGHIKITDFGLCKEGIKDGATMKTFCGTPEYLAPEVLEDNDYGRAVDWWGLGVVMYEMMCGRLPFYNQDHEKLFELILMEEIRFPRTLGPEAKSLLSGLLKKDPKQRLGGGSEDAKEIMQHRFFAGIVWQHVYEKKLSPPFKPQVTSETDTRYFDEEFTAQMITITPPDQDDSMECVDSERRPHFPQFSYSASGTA

## CNC(=O)c1ccc2c(c1)C(=O)c1ccc(Nc3ccc(F)c(NC(=O)C4CC4)c3)cc1CC2 [Compound 2015]
340 wild-type kinases [1]; 0.2 µM 2015, read-out: AXL residual activity
  remaining activity at 0.2 µM: 106%
340 wild-type kinases [1]; 1 µM 2015, read-out: AXL residual activity
  remaining activity at 1 µM: 92.6%
340 wild-type kinases [1]; AXL, 0.2 µM, read-out: residual activity
  remaining activity at 0.2 µM: 106%
340 wild-type kinases [1]; AXL, 1 µM, read-out: residual activity
  remaining activity at 1 µM: 92.6%
340 wild-type kinases [2]; 0.2 µM 2015, read-out: AKT1 residual activity
  remaining activity at 0.2 µM: 100%
340 wild-type kinases [2]; 1 µM 2015, read-out: AKT1 residual activity
  remaining activity at 1 µM: 98.7%
340 wild-type kinases [2]; AKT1, 0.2 µM, read-out: residual activity
  remaining activity at 0.2 µM: 100%
340 wild-type kinases [2]; AKT1, 1 µM, read-out: residual activity
  remaining activity at 1 µM: 98.7%
340 wild-type kinases [3]; 0.2 µM 2015, read-out: GSK3beta residual activity
  remaining activity at 0.2 µM: 98.7%
340 wild-type kinases [3]; 1 µM 2015, read-out: GSK3beta residual activity
  remaining activity at 1 µM: 86.4%
340 wild-type kinases [3]; GSK3beta, 0.2 µM, read-out: residual activity
  remaining activity at 0.2 µM: 98.7%
340 wild-type kinases [3]; GSK3beta, 1 µM, read-out: residual activity
  remaining activity at 1 µM: 86.3%
340 wild-type kinases [4]; 0.2 µM 2015, read-out: CAMK4 residual activity
  remaining activity at 0.2 µM: 92.7%
340 wild-type kinases [4]; 1 µM 2015, read-out: CAMK4 residual activity
  remaining activity at 1 µM: 94.1%
340 wild-type kinases [4]; CAMK4, 0.2 µM, read-out: residual activity
  remaining activity at 0.2 µM: 92.7%
340 wild-type kinases [4]; CAMK4, 1 µM, read-out: residual activity
  remaining activity at 1 µM: 94.2%
340 wild-type kinases [5]; 0.2 µM 2015, read-out: CDK3/CycC residual activity
  remaining activity at 0.2 µM: 104%
340 wild-type kinases [5]; 0.2 µM 2015, read-out: CDK3/CycE1 residual activity
  remaining activity at 0.2 µM: 88.9%
340 wild-type kinases [5]; 1 µM 2015, read-out: CDK3/CycC residual activity
  remaining activity at 1 µM: 96.3%
340 wild-type kinases [5]; 1 µM 2015, read-out: CDK3/CycE1 residual activity
  remaining activity at 1 µM: 81.7%
340 wild-type kinases [5]; CDK3/CycC, 0.2 µM, read-out: residual activity
  remaining activity at 0.2 µM: 104%
340 wild-type kinases [5]; CDK3/CycC, 1 µM, read-out: residual activity
  remaining activity at 1 µM: 96.3%
340 wild-type kinases [5]; CDK3/CycE1, 0.2 µM, read-out: residual activity
  remaining activity at 0.2 µM: 88.9%
340 wild-type kinases [5]; CDK3/CycE1, 1 µM, read-out: residual activity
  remaining activity at 1 µM: 81.7%
340 wild-type kinases [6]; 0.2 µM 2015, read-out: SRC residual activity
  remaining activity at 0.2 µM: 105%
340 wild-type kinases [6]; 1 µM 2015, read-out: SRC residual activity
  remaining activity at 1 µM: 95.5%
340 wild-type kinases [6]; SRC, 0.2 µM, read-out: residual activity
  remaining activity at 0.2 µM: 105%
340 wild-type kinases [6]; SRC, 1 µM, read-out: residual activity
  remaining activity at 1 µM: 95.5%
340 wild-type kinases [7]; 0.2 µM 2015, read-out: SIK3 residual activity
  remaining activity at 0.2 µM: 101%
340 wild-type kinases [7]; 1 µM 2015, read-out: SIK3 residual activity
  remaining activity at 1 µM: 95.7%
340 wild-type kinases [7]; SIK3, 0.2 µM, read-out: residual activity
  remaining activity at 0.2 µM: 101%
340 wild-type kinases [7]; SIK3, 1 µM, read-out: residual activity
  remaining activity at 1 µM: 95.7%
340 wild-type kinases [8]; 0.2 µM 2015, read-out: LCK residual activity
  remaining activity at 0.2 µM: 104%
340 wild-type kinases [8]; 1 µM 2015, read-out: LCK residual activity
  remaining activity at 1 µM: 95.6%
340 wild-type kinases [8]; LCK, 0.2 µM, read-out: residual activity
  remaining activity at 0.2 µM: 104%
340 wild-type kinases [8]; LCK, 1 µM, read-out: residual activity
  remaining activity at 1 µM: 95.6%
